From US8524717B2, “Oxidase inhibitors and their use” (Oryzon Genomics, S.A., priority 2008, dated 2013) come the findings set out here.

Test [1] addresses Human recombinant LSD1 protein (Homo sapiens (Human), UniProt O60341). Briefly: LSD1 demethylase inhibition assay (Amplex Red peroxide/peroxidase-coupled, di-methylated H3-K4 peptide). To be noted: for LSD1 percent at fixed concentration: at 20 μM; for ability to inhibit LSD1: preliminary assays, result in words.
Method: The demethylase activity was estimated, under aerobic conditions, by measuring the release of H2O2 produced during the catalytic process, using the Amplex® Red peroxide/peroxidase-coupled assay kit (Invitrogen).
Tranylcypromine (Biomol International) was used as a control for inhibition. Within the experiment, each concentration of inhibitor was tested in triplicate. […] The enzymatic reactions were set up in a 50 mM sodium phosphate, pH 7.4 buffer. […] A 1 μM H2O2 solution was used as a control of the kit efficiency. The conversion of the Amplex® Red reagent to resorufin due to the presence of H2O2 in the assay, was monitored by fluorescence (excitation at 540 nm, emission at 590 nm) using a microplate reader (Infinite 200, Tecan). Arbitrary units were used to measure level of H2O2 produced in the absence and/or in the presence of inhibitor.
The Ki of each inhibitor was estimated at half of the maximum activity.
Test [2] has as its target MAO-A (Homo sapiens (Human), UniProt P21397). Briefly: Monoamine oxidase assay (kynuramine to 4-hydroxyquinoline fluorescence), MAO-A. The test is classed as biochemical. To be noted: for Ki: Table 1. The protocol: (§1) Human recombinant monoamine oxidase proteins MAO-A and MAO-B were purchased from Sigma Aldrich. MOAs catalyze the oxidative deamination of 1°, 2° and 3° amines. In order to monitor MAO enzymatic activities and/or their inhibition rate by inhibitor(s) of interest, a fluorescent-based (inhibitor)-screening assay was set up. 3-(2-Aminophenyl)-3-oxopropamamine (kynuramine dihydrobromide, Sigma Aldrich), a non fluorescent compound was chosen as a substrate. Kynuramine is a non-specific substrate for both MAOs activities. While undergoing oxidative deamination by MAO activities, kynuramine is converted into 4-hydroxyquinoline (4-HQ), a resulting fluorescent product.
(§2) The monoamine oxidase activity was estimated by measuring the conversion of kynuramine into 4-hydroxyquinoline. Assays were conducted in 96-well black plates with clear bottom (Corning) in a final volume of 100 μL. The assay buffer was 100 mM HEPES, pH 7.5. Each experiment was performed in triplicate within the same experiment.
(§3) The oxidative deamination of the substrate was stopped by adding 50 μL (v/v) of NaOH 2N.
(§4) The Ki of each inhibitor was measure at Vmax/2.

Test [3] addresses MAO-B (Homo sapiens (Human), UniProt P27338). Briefly: Monoamine oxidase assay (kynuramine to 4-hydroxyquinoline fluorescence), MAO-B. To be noted: Table 1. In kind it is biochemical. The protocol: as §1, §2, §3, §4

Chain of MAO-A (P21397 whole entry): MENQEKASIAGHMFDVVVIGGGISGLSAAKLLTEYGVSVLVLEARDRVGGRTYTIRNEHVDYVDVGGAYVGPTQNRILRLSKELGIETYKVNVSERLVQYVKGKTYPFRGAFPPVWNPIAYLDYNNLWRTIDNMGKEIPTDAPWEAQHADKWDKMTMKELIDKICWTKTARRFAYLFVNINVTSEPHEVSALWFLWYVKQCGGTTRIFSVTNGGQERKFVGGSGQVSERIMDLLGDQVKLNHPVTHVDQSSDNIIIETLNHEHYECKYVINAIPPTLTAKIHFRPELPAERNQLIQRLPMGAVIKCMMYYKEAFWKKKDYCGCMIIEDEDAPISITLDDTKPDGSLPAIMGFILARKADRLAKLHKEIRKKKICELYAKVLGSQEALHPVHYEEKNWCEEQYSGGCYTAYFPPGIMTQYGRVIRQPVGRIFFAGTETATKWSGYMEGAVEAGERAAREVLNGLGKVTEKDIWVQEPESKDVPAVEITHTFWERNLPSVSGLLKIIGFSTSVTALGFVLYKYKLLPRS
Chain of MAO-B (P27338 whole entry): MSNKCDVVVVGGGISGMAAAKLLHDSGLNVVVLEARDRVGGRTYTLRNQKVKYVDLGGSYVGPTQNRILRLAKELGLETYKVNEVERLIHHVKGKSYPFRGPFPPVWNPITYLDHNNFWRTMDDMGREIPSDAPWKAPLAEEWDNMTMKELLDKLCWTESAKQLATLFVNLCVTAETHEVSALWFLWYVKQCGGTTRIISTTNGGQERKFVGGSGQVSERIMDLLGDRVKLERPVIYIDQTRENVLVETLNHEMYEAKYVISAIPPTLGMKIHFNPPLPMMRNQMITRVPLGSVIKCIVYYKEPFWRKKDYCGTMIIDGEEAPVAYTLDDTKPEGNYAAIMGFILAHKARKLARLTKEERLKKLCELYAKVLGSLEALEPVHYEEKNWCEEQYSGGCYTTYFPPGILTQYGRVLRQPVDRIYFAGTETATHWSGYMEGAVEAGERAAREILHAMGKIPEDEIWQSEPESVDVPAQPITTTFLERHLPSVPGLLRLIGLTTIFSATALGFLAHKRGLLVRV

Turning to `CN(CC(=O)NC1CC1)[C@H]1C[C@@H]1c1ccccc1` (relative stereo) [Example 19, N-cyclopropyl-2-{methyl[(trans)-2-phenylcyclopropyl]amino}acetamide], the “LSD1 percent at fixed concentration” value in test [1] is 34% at 20. Moreover, the results for the Ki in test [2] and in test [3] were 74 µM and above 100 µM, respectively.
Regarding `CN(C)CCNC(=O)CN[C@H]1C[C@@H]1c1ccccc1` (relative stereo) [Example 13, N-(2-(dimethylamino)ethyl)-2-((trans)-2-phenylcyclopropylamino)acetamide], the Ki in test [2] and in test [3] was above 40 µM throughout.
Take `CN(CC(N)=O)[C@H]1C[C@@H]1c1ccccc1` (relative stereo) [Example 20, 2-{methyl[(trans)-2-phenylcyclopropyl]amino}acetamide]: in test [1], the “LSD1 percent at fixed concentration” value is 40% at 20. Also, the Ki in test [2] and in test [3] was above 100 µM throughout.
As for `CN1CCN(C(=O)CN[C@H]2C[C@@H]2c2ccc(OCc3ccccc3)cc2)CC1` (relative stereo) [Example 26, 2-((trans)-2-(4-(benzyloxy)phenyl)cyclopropylamino)-1-(4-methylpiperazin-1-yl)ethanone], in test [2], the “IC50 value for MAO-A” value was “low micromolar range” and the affinity, expressed as Ki, was 11 µM.
In the case of `O=C(CN[C@H]1C[C@@H]1c1ccccc1)Nc1ccc(F)cc1` (relative stereo) [Example 8, N-(4-fluorophenyl)-2-{[(trans)-2-phenylcyclopropyl]amino}acetamide], the Ki in test [1], in test [2] and in test [3] was above 50 µM throughout. Also, the “ability to inhibit LSD1” value in test [1] was “did not inhibit LSD1”.
Consider `CC(C)(C)NC(=O)CN(Cc1ccccc1)[C@H]1C[C@@H]1c1ccccc1` (relative stereo) [Example 21, 2-(benzyl((trans)-2-phenylcyclopropyl)amino)-N-tert-butylacetamide], for which, in test [1], the Ki (usually a dissociation constant, usually derived from enzyme kinetics or from competition with a known ligand) was above 100 µM and the “ability to inhibit LSD1” value is “did not inhibit LSD1”.
